Values of other authors, collected in patent publication US20090062317A1, “MEDICINAL USE OF RECEPTOR LIGANDS” (7TM PHARMA A/S, priority 2004, published 2009).

Test system: rats
Conditions: literature reports

Row | SMILES | food intake induced by i.c.v.-injected MCH
1 | COCC1=C(C(=O)OC)[C@H](c2ccc(F)c(F)c2)N(C(=O)NCCCN2CCC(c3cccc(NC(C)=O)c3)CC2)C(=O)N1 [SNAP-7941] | suppress food intake
2 | CN(C)CC1CCc2cc(NC(=O)c3ccc(-c4ccc(F)cc4)cc3)ccc2C1 (centres unmarked) [Example T-226296] | suppress food intake
